Data on 17 compounds can be found in patent publication US12522612B2, “PDE4 inhibitors, pharmaceutical compositions, and therapeutic applications” (BioTheryX, Inc., priority 2019, dated 2026).

The subject of one assay is TNF-α. The experiment in a line: Cell-based TNF-α inhibition assay in LPS-induced PBMCs (Meso Scale). The following applies: PBMC, PBMCs pretreated 1 h, LPS 100 ng/mL 18-24 h, relative to stimulated DMSO control; for inhibition at 1 µM: compound concentration 1 μM; for inhibition at 0.1 µM: compound concentration 0.1 μM. The procedure:
Frozen primary blood mononuclear cells (PBMCs) were quick thawed, washed once with RPMI 1640 media supplemented with 10% fetal bovine serum, 1% penicillin, and 1% streptomycin, and plated in a 96 well plate at 200,000 cells per well. The cells were pretreated with DMSO only as a control or a compound for 1 h, and then induced with LPS (lipopolysaccharide) (100 ng/mL) for 18-24 h. The supernatant was analyzed for TNF-α using the Meso Scale assay. Compound activity was determined as a percentage of the stimulated DMSO control. The results are summarized in Table 1, where A represents a percent inhibition value ≥60%; B represents a percent inhibition value <60% and ≥40%; C represents a percent inhibition value <40% and >20%; and D represents a single percent inhibition value <20%.

Another assay addresses T1, PDE4B (Homo sapiens, UniProt Q07343).
T1 construct: Whole cell extracts were prepared using an immunoprecipitation (IP) lysis buffer; endogenous in cells; host or cells: A549
The assay is described as follows: Protein degradation assay in A549 cells, western blot, PDE4B. The format is cell-based. The following applies: 24 h treatment, read-out: PDE4B degradation relative to DMSO. The procedure:
A549 cells were grown in RPMI 1640 media supplemented with 10% fetal bovine serum, streptomycin, and penicillin. The cells were plated in 6-well plates in the growth media. The next day, fresh growth media were replaced on the cells. The cells were then treated with a compound for 24 h at predetermined concentrations. Whole cell extracts were prepared using an immunoprecipitation (IP) lysis buffer. Briefly, the cells were washed once in PBS, and the cell pellets were resuspended in the IP lysis buffer and incubated for 15 min on ice. Cells debris was removed by centrifugation and the cleared whole cell lysates were transferred to new tubes for further analysis.
For a western blot analysis, the whole cell protein extracts were separated on 4-12% SDS-polyacrylamide gels, transferred to nitrocellulose, and probed with primary antibodies. Membranes were subsequently washed and probed with IRDYE® secondary antibodies. The signals were detected using an ODYSSEY® Imaging System. The antibodies used in the assay included anti-PDE4B antibody; anti-PDE4D antibodies (top, bottom, and short isoform); β-actin mouse monoclonal antibody; IRDYE® 680RD goat anti-rabbit antibody; and IRDYE® 800CW goat anti-mouse antibody. Compounds B2 to B4, B18, B49 to B52, B76, B77, B79, B81 to B83, B88, B89, and B91 were determined to be able to degradate PDE4B as high as about 50% relative to DMSO.

T1 sequence (Q07343 whole entry): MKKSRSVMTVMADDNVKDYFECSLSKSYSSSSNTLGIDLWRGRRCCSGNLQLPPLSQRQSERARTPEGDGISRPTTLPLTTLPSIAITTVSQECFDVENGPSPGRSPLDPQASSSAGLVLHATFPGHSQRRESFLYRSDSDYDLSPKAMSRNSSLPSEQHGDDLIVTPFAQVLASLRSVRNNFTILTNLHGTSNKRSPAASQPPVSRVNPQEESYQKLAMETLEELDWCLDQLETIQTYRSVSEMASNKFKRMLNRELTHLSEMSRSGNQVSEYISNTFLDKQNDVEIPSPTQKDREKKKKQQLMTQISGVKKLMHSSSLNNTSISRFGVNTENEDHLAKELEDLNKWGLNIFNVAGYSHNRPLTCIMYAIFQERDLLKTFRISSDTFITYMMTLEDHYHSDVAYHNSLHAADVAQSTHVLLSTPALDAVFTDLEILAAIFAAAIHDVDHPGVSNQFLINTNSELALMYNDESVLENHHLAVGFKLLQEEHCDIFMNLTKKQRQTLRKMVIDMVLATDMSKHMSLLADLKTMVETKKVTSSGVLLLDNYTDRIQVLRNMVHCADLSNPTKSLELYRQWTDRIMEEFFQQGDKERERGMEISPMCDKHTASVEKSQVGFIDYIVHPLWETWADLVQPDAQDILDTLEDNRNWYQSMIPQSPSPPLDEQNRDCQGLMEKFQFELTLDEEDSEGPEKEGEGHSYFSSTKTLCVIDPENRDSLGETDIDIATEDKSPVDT

Consider `CCOc1cc([C@@H](CS(C)(=O)=O)N2C(=O)c3cc(CCCCCCCN4CCC(c5cc(F)cc6c5CN(C5CCC(=O)NC5=O)C6=O)CC4)cc(NC(C)=O)c3C2=O)ccc1OC` (stereo partly drawn) [Compound B2, N-(6-(7-(4-(2-(2,6-dioxopiperidin-3-yl)-6-fluoro-1-oxoisoindolin-4-yl)piperidin-1-yl)heptyl)-2-((S)-1-(3-ethoxy-4-methoxyphenyl)-2-(methylsulfonyl)ethyl)-1,3-dioxoisoindolin-4-yl)acetamide], for which the inhibition at 1 µM in the assay with TNF-α was no less than 60%. In addition, on PDE4B, the Dmax was no more than 50%. In the case of `O=C1CCC(N2Cc3c(cc(F)cc3C3CCN(CCCCCCCN(C(=O)c4ccc(OC(F)F)c(OCC5CC5)c4)c4c(Cl)cncc4Cl)CC3)C2=O)C(=O)N1` (stereo not shown) [Compound B3, 3-(Cyclopropylmethoxy)-N-(3,5-dichloropyridin-4-yl)-4-(difluoromethoxy)-N-(7-(4-(2-(2,6-dioxopiperidin-3-yl)-6-fluoro-1-oxoisoindolin-4-yl)piperidin-1-yl)heptyl)benzamide], in the assay with TNF-α, the inhibition at 0.1 µM is less than 20% and the inhibition at 1 µM was less than 20%. Also, the Dmax at PDE4B is no more than 50%. `O=C1CCC(N2Cc3c(cc(F)cc3C3CCN(CCCCCCCOc4cc(C(=O)Nc5c(Cl)cncc5Cl)ccc4OC(F)F)CC3)C2=O)C(=O)N1` (stereo not shown) [Compound B4, N-(3,5-dichloropyridin-4-yl)-4-(difluoromethoxy)-3-((7-(4-(2-(2,6-dioxopiperidin-3-yl)-6-fluoro-1-oxoisoindolin-4-yl)piperidin-1-yl)heptyl)oxy)benzamide]: in the assay with TNF-α, the inhibition at 0.1 µM is no less than 60% and the inhibition at 1 µM was no less than 60%. The Dmax on PDE4B is no more than 50%. Turning to `O=C1CCC(N2Cc3c(C#CC4CCN(C(=O)CCCCOc5cc(C(=O)Nc6c(Cl)cncc6Cl)ccc5OC(F)F)CC4)cccc3C2=O)C(=O)N1` (stereo not shown) [Compound B18, N-(3,5-Dichloropyridin-4-yl)-4-(difluoromethoxy)-3-((5-(4-((2-(2,6-dioxopiperidin-3-yl)-1-oxoisoindolin-4-yl)ethynyl)piperidin-1-yl)-5-oxopentyl)oxy)benzamide], in the assay on TNF-α, the inhibition at 0.1 µM is no less than 60% and the inhibition at 1 µM was no less than 60%. The Dmax on PDE4B was no more than 50%. In the case of `O=C1CCC(N2C(=O)c3cccc(NCCCCCCCOc4cc(C(=O)Nc5c(Cl)cncc5Cl)ccc4OC(F)F)c3C2=O)C(=O)N1` (stereo not shown) [Compound B72, N-(3,5-Dichloropyridin-4-yl)-4-(difluoromethoxy)-3-((7-((2-(2,6-dioxopiperidin-3-yl)-1,3-dioxoisoindolin-4-yl)amino)heptyl)oxy)benzamide], in the assay on TNF-α, the inhibition at 0.1 µM is no less than 60% and the inhibition at 1 µM is no less than 60%. Take `O=C1CCC(N2Cc3c(cc(F)cc3C3CCN(CCCCCCCCCCCCOc4cc(C(=O)Nc5c(Cl)cncc5Cl)ccc4OC(F)F)CC3)C2=O)C(=O)N1` (stereo not shown) [Compound B73, N-(3,5-Dichloropyridin-4-yl)-4-(difluoromethoxy)-3-((12-(4-(2-(2,6-dioxopiperidin-3-yl)-6-fluoro-1-oxoisoindolin-4-yl)piperidin-1-yl)dodecyl)oxy)benzamide]: in the assay with TNF-α, the inhibition at 0.1 µM was no less than 60% and the inhibition at 1 µM was no less than 60%.

In the case of `O=C1CCC(N2C(=O)c3cccc(NCCOCCOCCOCCOc4ccc(C(=O)Nc5c(Cl)cncc5Cl)cc4OC(F)F)c3C2=O)C(=O)N1` (stereo not shown) [Compound B74, N-(3,5-Dichloropyridin-4-yl)-3-(difluoromethoxy)-4-(2-(2-(2-(2-((2-(2,6-dioxopiperidin-3-yl)-1,3-dioxoisoindolin-4-yl)amino)ethoxy)ethoxy)ethoxy)ethoxy)benzamide], in the assay on TNF-α, the inhibition at 0.1 µM was no less than 60% and the inhibition at 1 µM is no less than 60%.

With `CCOc1cc([C@@H](CS(C)(=O)=O)N2C(=O)c3cccc(NC(=O)CCCCCCCCN4CCC(c5cc6c(cc5F)C(=O)N(C5CCC(=O)NC5=O)C6)CC4)c3C2=O)ccc1OC` (stereo partly drawn) [Compound B75, 9-(4-(2-(2,6-Dioxopiperidin-3-yl)-6-fluoro-1-oxoisoindolin-5-yl)piperidin-1-yl)-N-(2-((S)-1-(3-ethoxy-4-methoxyphenyl)-2-(methylsulfonyl)ethyl)-1,3-dioxoisoindolin-4-yl)nonanamide], in the assay on TNF-α, the inhibition at 0.1 µM was no less than 60% and the inhibition at 1 µM is no less than 60%. On to `CCOc1cc([C@@H](CS(C)(=O)=O)N2C(=O)c3cccc(NC(=O)CCCCNCc4ccc(OCc5scc6c5CN(C5CCC(=O)NC5=O)C6=O)cc4)c3C2=O)ccc1OC` (stereo partly drawn) [Compound B78, 5-((4-((5-(2,6-Dioxopiperidin-3-yl)-4-oxo-5,6-dihydro-4H-thieno[3,4-c]pyrrol-1-yl)methoxy)benzyl)amino)-N-(2-((S)-1-(3-ethoxy-4-methoxyphenyl)-2-(methylsulfonyl)ethyl)-1,3-dioxoisoindolin-4-yl)pentanamide], for which the inhibition at 1 µM in the assay on TNF-α was no less than 60%. Regarding `COc1ccc(N2Cc3sccc3C2=O)cc1OCCCCCCCN1CCC(c2cc(F)cc3c2CN(C2CCC(=O)NC2=O)C3=O)CC1` (stereo not shown) [Compound B80, 3-(6-Fluoro-4-(1-(7-(2-methoxy-5-(4-oxo-4,6-dihydro-5H-thieno[2,3-c]pyrrol-5-yl)phenoxy)heptyl)piperidin-4-yl)-1-oxoisoindolin-2-yl)piperidine-2,6-dione], in the assay with TNF-α, the inhibition at 1 µM is no less than 60%. Regarding `O=C1CCC(N2Cc3c(NCCCOCCOCCOCCOc4ccc(C(=O)Nc5c(Cl)cncc5Cl)cc4OCC4CC4)cccc3C2=O)C(=O)N1` (stereo not shown) [Compound B81, 3-(Cyclopropylmethoxy)-N-(3,5-dichloropyridin-4-yl)-4-(2-(2-(2-(3-((2-(2,6-dioxopiperidin-3-yl)-1-oxoisoindolin-4-yl)amino)propoxy)ethoxy)ethoxy)ethoxy)benzamide], at PDE4B, the Dmax was no more than 50%. As for `O=C1CCC(N2Cc3c(cc(F)cc3C3CCN(CCCCCCCCCOc4ccc(C(=O)Nc5c(Cl)cncc5Cl)cc4OCC4CC4)CC3)C2=O)C(=O)N1` (stereo not shown) [Compound B84, 3-(Cyclopropylmethoxy)-N-(3,5-dichloropyridin-4-yl)-4-((9-(4-(2-(2,6-dioxopiperidin-3-yl)-6-fluoro-1-oxoisoindolin-4-yl)piperidin-1-yl)nonyl)oxy)benzamide], in the assay with TNF-α, the inhibition at 1 µM was no less than 60%.

Consider `CC(=O)NC(=O)C(C)N1Cc2c(cc(F)cc2C2CCN(CCCCCCCCCOc3cc(C(=O)Nc4c(Cl)cncc4Cl)ccc3OC(F)F)CC2)C1=O` (stereo not shown) [Compound B85, 3-((9-(4-(2-(1-Acetamido-1-oxopropan-2-yl)-6-fluoro-1-oxoisoindolin-4-yl)piperidin-1-yl)nonyl)oxy)-N-(3,5-dichloropyridin-4-yl)-4-(difluoromethoxy)benzamide], for which, in the assay with TNF-α, the inhibition at 1 µM fell in the range of 20 to 40%. Consider `Cc1ncsc1-c1ccc(CNC(=O)[C@@H]2C[C@@H](O)CN2C(=O)[C@@H](NC(=O)CCCCCCCCOc2cc(C(=O)Nc3c(Cl)cncc3Cl)ccc2OCC2CC2)C(C)(C)C)cc1` [Compound B86, (2S,4R)-1-((S)-2-(9-(2-(Cyclopropylmethoxy)-5-((3,5-dichloropyridin-4-yl)carbamoyl)phenoxy)nonanamido)-3,3-dimethylbutanoyl)-4-hydroxy-N-(4-(4-methylthiazol-5-yl)benzyl)pyrrolidine-2-carboxamide], for which the inhibition at 1 µM in the assay with TNF-α is no less than 60%.

For the compound `CCOc1cc([C@@H](CS(C)(=O)=O)N2C(=O)c3cc(CCCCCCCC4CCN(c5cccc6c5C(=O)N(C5CCC(=O)NC5=O)C6=O)CC4)cc(NC(C)=O)c3C2=O)ccc1OC` (stereo partly drawn) [Compound B88, N-(6-(7-(1-(2-(2,6-Dioxopiperidin-3-yl)-1,3-dioxoisoindolin-4-yl)piperidin-4-yl)heptyl)-2-((S)-1-(3-ethoxy-4-methoxyphenyl)-2-(methylsulfonyl)ethyl)-1,3-dioxoisoindolin-4-yl)acetamide], the Dmax on PDE4B was no more than 50%. `CCOc1cc([C@@H](CS(C)(=O)=O)N2C(=O)c3cccc(NC(=O)CCOCCOCCNc4cccc5c4C(=O)N(C4CCC(=O)NC4=O)C5=O)c3C2=O)ccc1OC` (stereo partly drawn) [Compound B89, 3-(2-(2-((2-(2,6-Dioxopiperidin-3-yl)-1,3-dioxoisoindolin-4-yl)amino)ethoxy)ethoxy)-N-(2-((S)-1-(3-ethoxy-4-methoxyphenyl)-2-(methylsulfonyl)ethyl)-1,3-dioxoisoindolin-4-yl)propanamide]: at PDE4B, the Dmax is no more than 50%. Consider `O=C1CCC(N2Cc3c(cc(F)cc3C3CCN(CCCCCCCOc4ccc(N5Cc6sccc6C5=O)cc4OC4CCCC4)CC3)C2=O)C(=O)N1` (stereo not shown) [Compound B91, 3-(4-(1-(7-(2-(Cyclopentyloxy)-4-(4-oxo-4,6-dihydro-5H-thieno[2,3-c]pyrrol-5-yl)phenoxy)heptyl)piperidin-4-yl)-6-fluoro-1-oxoisoindolin-2-yl)piperidine-2,6-dione], for which the Dmax at PDE4B was no more than 50%.
